From US12409158B2, “Combination therapy for treating cancer” (GONGWIN BIOPHARM CO., LTD, priority 2022, dated 2025)

How the values were obtained:
H520 cells [1] = test: H520 lung squamous cell carcinoma xenograft, repeat experiment; assay type: in vivo, nude-BALB/c mice; conditions: compared to control, FIGS. 13A, 13B
Method: (§1) Male nude-BALB/c mice at six-weeks of age were obtained from National Laboratory Animal Breeding and Research Center, Taipei, Taiwan. Mice were housed in each cage and provided them with sterile food and water. The mice were maintained under a constant temperature (22±2° C.) and relative humidity (55±5%), with a 12:12 h light: dark cycle. The Institutional Animal Care and Use Committee (IACUC) at the National […] University (IACUC Approval No. 110003) reviewed and approved the study protocol, in which procedures were in accordance with the Guidelines for the Care and Use of Laboratory Animals published by the Taiwanese Ministry of Health and Welfare. Human non-small cell lung carcinoma cell line (H520) was purchased from ATCC Cell Bank. H520 cells were incubated in RPMI 1640 medium (cat no. 61870044; Gibco; Thermo Fisher, Inc) supplemented with 10% fetal bovine serum in an environmental containing 5% CO2 at 37° C. The experimental treatments were commenced after the implanted H520 cells had formed a detectable tumor mass, which was assessed on day 7 after implantation. […] The growth of the tumors was assessed every seven days by measuring their largest and smallest diameters, and calculated their volume according to the following formula: […] […]

ZEB1 = test: Quantitative PCR of ZEB1 mRNA in M5 tumors; assay type: in vivo, BALB/c nude mice; conditions: FIG. 10
S6K1 = test: Western blot of S6K1 in M5 tumors; assay type: in vivo, BALB/c nude mice; conditions: FIG. 7A
H520 cells [2] = test: H520 lung squamous cell carcinoma xenograft, first experiment; assay type: in vivo, nude-BALB/c mice
Method: as §1

mTOR = test: Western blot of mTOR in M5 tumors; assay type: in vivo, BALB/c nude mice; conditions: FIG. 7A

Cc1ccc(S(N)(=O)=O)cc1 [PTS, p-Toluenesulfonamide]
tumor volume / tumor burden (H520 cells [1]): slight decrease
ZEB1 mRNA expression (ZEB1): downregulation
expression of S6K1 (S6K1): downregulated
tumor growth inhibition (H520 cells [2]; PTS100 330 mg/kg IT B.I.W., gemcitabine 160 mg/kg and cisplatin 3 mg/kg IP QW): 39.2%
tumor volume / tumor burden (H520 cells [2]; compared to control, FIG. 12A): slight decrease
expression of mTOR (mTOR): downregulated
